Test results taken from the C3SDB collision cross section collection.

Legend:
[1] = instrument: TW, calibrated with phosphatidylcholines (ESI+) and phosphatidylethanolamines (ESI-), doubly charged cardiolipins calibrated with poly-DL-…
[2] = instrument: DT, single field, calibrated with Agilent tune mix (Agilent)
[3] = [M+H]+; instrument: DT; single field
[4] = [M+Na]+; instrument: DT; stepped-field

collision cross section (N2) ([1]; [M+H]+)	collision cross section (N2) ([1]; [M-H]-)	collision cross section (N2) ([1]; [M+Na]+)	further results	SMILES
279.52 Å²	267.54 Å²	–	–	CCCCCCCCCCCCCCCC(=O)OCC(COP(=O)(O)OCCN)OC(=O)CCCCCCCC1CC1CCCCCCCC (stereo unspecified) [PE(35:1)]
–	–	–	collision cross section (N2) ([2]; [M+HCOO]-): 300.3 Å²; collision cross section (N2) ([2]; [M+H]+): 302.9 Å²; collision cross section (N2) ([2]; [M+Na]+): 302.8 Å²; collision cross section (N2) [3]: 302.5 Å²; collision cross section (N2) [4]: 306.3 Å²	CCCCCCCCCCCCC=CC[C@@H](O)[C@H](COP(=O)([O-])OCC[N+](C)(C)C)NC(=O)CCCCCCCCCCCCCCCCCCCCCC [SM(41:1)]
–	320.39 Å²	328.3 Å²	–	CCCCCCCCCCCCCCCC(=O)NCCOP(=O)(O)OC[C@@H](COC(=O)CCCCCCCCCCCCCCC)OC(=O)CCCCCCCC1CC1CCCCCC (stereo partly specified) [AcylPE(49:1)]
–	247.47 Å²	–	–	CCCCCC/C=C\CCCCCCCC(=O)OCC(COP(=O)(O)O)OC(=O)CCCCCCC/C=C\CCCCCC (stereo unspecified) [PA(32:2)]
–	209.66 Å²	–	–	CCCCCCCCCCCCCCC(=O)OC[C@@H](O)COP(=O)(O)OCC(O)CO (stereo partly specified) [LPG(15:0)]
–	–	–	collision cross section (N2) ([2]; [M+H]+): 304.2 Å²; collision cross section (N2) ([2]; [M+Na]+): 304.4 Å²; collision cross section (N2) [3]: 305.54 Å²; collision cross section (N2) [4]: 308.2 Å²	CCCCCCCCCCCCC=CC[C@@H](O)[C@H](COP(=O)([O-])OCC[N+](C)(C)C)NC(=O)CC=CCCCCCCCCCCCCCCCCCCCC [SM(42:2)]
–	259.19 Å²	273.08 Å²	–	CCCCCCCCCCCCCCCC(=O)OCC(COP(=O)(O)OCC(O)CO)OC(=O)CCCCCCCC1CC1CCCC (stereo unspecified) [PG(31:1)]
215.99 Å²	210.71 Å²	220.12 Å²	–	CCCCCCCC/C=C/CCCCCCCC(=O)O[C@H](CO)COP(=O)([O-])OCC[NH3+] [LPE(0:0/18:1)]
–	245.76 Å²	–	–	CCCCCCCCCCCCCCCC(=O)OCC(COP(=O)(O)O)OC(=O)CCCCCCCC1CC1CCCC (stereo unspecified) [PA(31:1)]
–	209.98 Å²	–	–	CCCCCC/C=C/CCCCCCCC(=O)O[C@H](CO)COP(=O)(O)OCC(O)CO (stereo partly specified) [LPG(16:1)]
–	200.28 Å²	–	–	CCCCC1CC1CCCCCCCC(=O)OC[C@@H](O)COP(=O)([O-])OCC[NH3+] (stereo partly specified) [LPE(15:1/0:0)]
275.45 Å²	263.99 Å²	–	–	CCCCCCCC/C=C\CCCCCCCC(=O)OC(COC(=O)CCCCCCCCCCCCCCC)COP(=O)(O)OCCN (stereo unspecified) [PE(34:1)]
–	–	–	collision cross section (N2) ([1]; [M-2H]2-): 394.68 Å²	CCCCCC/C=C\CCCCCCCC(=O)OCC(COP(=O)(O)OCC(O)COP(=O)(O)OCC(COC(=O)CCCCCCCCCCCCCC)OC(=O)CCCCCCC/C=C\CCCCCC)OC(=O)CCCCCCC/C=C\CCCCCC (stereo unspecified) [CL(63:3)]
268.72 Å²	256.09 Å²	–	–	CCCCCC/C=C\CCCCCCCC(=O)OCC(COP(=O)(O)OCCN)OC(=O)CCCCCCCCCCCCCCC (stereo unspecified) [PE(32:1)]
219.65 Å²	214.97 Å²	225.77 Å²	–	CCCCCCCCC1CC1CCCCCCCC(=O)OC[C@@H](O)COP(=O)([O-])OCC[NH3+] (stereo partly specified) [LPE(19:1/0:0)]
–	273.44 Å²	287.26 Å²	–	CCCCCCCCCCCCCCCC(=O)OCC(COP(=O)(O)OCC(O)CO)OC(=O)CCCCCCCC1CC1CCCCCCCC (stereo unspecified) [PG(35:1)]
–	264.54 Å²	275.67 Å²	–	CCCCCC/C=C\CCCCCCCC(=O)OCC(COP(=O)(O)OCC(O)CO)OC(=O)CCCCCCCC1CC1CCCCCC (stereo unspecified) [PG(33:2)]
–	–	–	collision cross section (N2) ([2]; [M+HCOO]-): 292.1 Å²; collision cross section (N2) [3]: 293.47 Å²; collision cross section (N2) [4]: 298.5 Å²	CCCCCCCCCCCCC=CC[C@@H](O)[C@H](COP(=O)([O-])OCC[N+](C)(C)C)NC(=O)CCCCCCCCCCCCCCCCCCC [SM(38:1)]
206.14 Å²	199.2 Å²	212.49 Å²	–	CCCCCCCCCCCCCC(=O)OC[C@@H](O)COP(=O)([O-])OCC[NH3+] [LPE(14:0/0:0)]
